Measured values from paper doi:10.1101/2020.07.29.226878v1 (bioRxiv, 2020).

Legend:
Acheta domesticus = conditions: tested in Acheta domesticus; cited from earlier work
[1] = test system: sheep blowflies (Lucilia cuprina); assay: In vivo insecticidal assay, intrathoracic injection into sheep blowflies

Substance | LD50 at 24 h (Acheta domesticus) | LD50 in blow fly assays (abstract) [1]
ponericin G1 | 25.7 nmol/g | –
Δ-pseudomyrmecitoxin-Pp1a [Δ-PSDTX-Pp1a] | – | 3 nM
